Like-named read-outs stand apart in the source and are kept apart here. One block for each compound: values may come before it.
Legend:
LNCaP cells = test: Cell growth inhibition (MTT colorimetric assay), LNCaP; format: cell-based, human; settings: Homo sapiens
Description: (§1) Compounds were evaluated on their ability to inhibit LNCaP cell (androgen sensitive AR-mutant), C4-2B and CWR22Rv1 (CRPC cell lines) viability at 1 and 10 μM concentrations by the MTT assy.
(§2) The cells were seeded in 96-well plates (Corning Costar) at a density of 5×10^3 cells per well. Cells were allowed to adhere to the plate for 24 hours and then treated with various concentrations of compounds dissolved in 95% EtOH. Cells were treated for 7 days with renewal of test compound and media on day 4. On the 7th day, medium was renewed and MTT (3-(4,5-dimethylthiazol-2-yl)-2,5-diphenyl-2H-tetrazolium bromide) (Sigma, St Louis, Mo., USA) solution (0.5 mg MTT per ml of media) was added to the medium such that the ratio of MTT: medium was 1:10. The cells were incubated with MTT for 2 hours. The medium was then aspirated and DMSO was added to solubilize the violet MTT-formazan product. The absorbance at 562 nm was measured by spectrophotometry (Biotek Inc.).

[1] = test system: full length AR and the splice variants ARs; test: AR down-regulation in CWR22Rv1 (FIGS. 9D, 9E, 9F); format: cell-based, human; settings: 9E and 9F
Description: (§3) In the experiments show in FIG. 9, LNCaP and CWR22Rv1 cells were treated VN/124-1 and analogs at varying time points and effects on significant cancer cells promoting genes investigated at the protein level.

AR protein = molecular target: T1, AR protein (Homo sapiens, UniProt P10275, T878A); test: Western blotting, AR protein levels in LNCaP cells; format: cell-based; settings: 15 μM of each compound for 24 h (FIG. 8)
T1 construct: Effect of compounds on suppression of AR protein levels in LNCaP cells; endogenous in cells; host or cells: LNCaP
T1 sequence (P10275 1-920 T878A): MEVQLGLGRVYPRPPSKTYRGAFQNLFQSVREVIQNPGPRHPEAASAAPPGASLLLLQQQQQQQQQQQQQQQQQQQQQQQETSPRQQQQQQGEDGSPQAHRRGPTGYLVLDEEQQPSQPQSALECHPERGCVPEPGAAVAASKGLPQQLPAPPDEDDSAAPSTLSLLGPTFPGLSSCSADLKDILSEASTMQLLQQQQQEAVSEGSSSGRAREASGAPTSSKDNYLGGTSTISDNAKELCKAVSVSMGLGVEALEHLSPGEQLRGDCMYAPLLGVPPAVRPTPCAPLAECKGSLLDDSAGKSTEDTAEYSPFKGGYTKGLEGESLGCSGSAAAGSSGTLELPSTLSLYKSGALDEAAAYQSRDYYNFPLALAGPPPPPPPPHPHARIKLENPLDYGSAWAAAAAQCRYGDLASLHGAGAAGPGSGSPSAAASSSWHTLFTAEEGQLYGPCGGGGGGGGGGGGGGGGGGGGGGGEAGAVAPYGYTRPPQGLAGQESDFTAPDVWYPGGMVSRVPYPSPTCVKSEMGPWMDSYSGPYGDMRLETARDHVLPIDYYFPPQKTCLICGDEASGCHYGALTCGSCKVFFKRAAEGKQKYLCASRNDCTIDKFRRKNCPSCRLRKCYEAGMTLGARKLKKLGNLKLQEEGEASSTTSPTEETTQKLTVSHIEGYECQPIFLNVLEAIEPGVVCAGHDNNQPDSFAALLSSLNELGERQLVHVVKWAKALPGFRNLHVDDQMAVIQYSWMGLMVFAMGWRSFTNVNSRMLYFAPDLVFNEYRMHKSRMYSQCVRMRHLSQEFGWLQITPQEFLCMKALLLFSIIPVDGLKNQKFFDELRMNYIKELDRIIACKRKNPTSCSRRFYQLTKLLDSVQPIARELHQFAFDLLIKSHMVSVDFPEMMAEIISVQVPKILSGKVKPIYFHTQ
Description: The ability of various compounds to down-regulate AR protein expressions was determined by western blotting.

[2] = test system: LNCaP cell, C4-2B and CWR22Rv1; test: Cell growth inhibition (MTT), anticancer activity, cell line not given; format: cell-based, human; settings: cell line not stated
Description: as §1

CWR22Rv1 = test: Cell growth inhibition (MTT colorimetric assay), CWR22Rv1; format: cell-based; settings: Homo sapiens
Description: as §1, §2

[3] = test system: N-Cadherin, AR3, Mnk1/2, MMP-2, Ezh2, Mc1-1, eIF4E phosphorylation in CWR22Rv1 cells; test: Effects of compounds on oncogenes at the protein level, CWR22Rv1 cells; format: cell-based, human; settings: FIGS. 9B and 9G
[4] = test system: PARP cleavage, CDC25c, Mnk2, Cyclin D1, Cox-2 and N-Cadherin in LNCaP cells; test: Effects of compounds on oncogenes at the protein level, LNCaP cells; format: cell-based, human; settings: FIGS. 9A and 9C
Description: as §3

PC3 cells = test: Cell migration of PC3 cells; format: cell-based, human; settings: 5 μM, after 12 hours; FIG. 10
full length AR = test: AR down-regulation (FIG. 9H); format: cell-based, human
[5] = LNCaP, 168 h, Steroidal VNPP compounds table, treated for 7 days, read-out: GI50 Values High Passage LNCaP
[6] = Table 10, LNCaP low passage, concentration required to inhibit cell growth by 50%, read-out: GI50 Values LNCaP (Low Passage)
[7] = LNCaP, 168 h, Non-steroidal VNPP compounds table, treated for 7 days, read-out: GI50 Values High Passage LNCaP
[8] = CWR22Rv1, 168 h, Non-steroidal VNPP compounds table, treated for 7 days
[9] = LNCaP, 168 h, Non-steroidal VNPP compounds table, treated for 7 days, read-out: GI50 Values Low Passage LNCaP
[10] = CWR22Rv1, 168 h, Steroidal VNPP compounds table, treated for 7 days
[11] = LNCaP, 168 h, Steroidal VNPP compounds table, treated for 7 days, read-out: GI50 Values Low Passage LNCaP
[12] = Table 10, LNCaP high passage, read-out: GI50 Values LNCaP (High Passage)

GI50 (LNCaP cells; [5]): 4.85 µM
GI50 (LNCaP cells; [6]): 4.85 µM
SMILES: CNC(=O)c1ccc(N2C(=S)N(c3ccc(C#N)c(C(F)(F)F)c3)C(=O)C2(C)C)cc1F [MDV3100, reference compound]

SMILES: C[C@]12CCC3c4ccc(O)cc4CCC3C1CC=C2n1cnc2ccccc21 (stereo partly drawn) [VNPP338]
AR down-regulation against full length AR and the splice variants ARs [1]: showed activity (AR down-regulation)
AR down-regulating action (AR protein levels, western blot) (AR protein): potent AR down-regulating agents
Anticancer activity (SAR statement) [2]: equal potent anticancer activity to compound VN/124-1

SMILES: C[C@]12CCC3c4ccc(C(=O)O)cc4CCC3C1CC=C2n1cnc2ccccc21 (stereo partly drawn) [VNPP341]
AR down-regulation against full length AR and the splice variants ARs [1]: showed activity (AR down-regulation)
AR down-regulating action (AR protein levels, western blot) (AR protein): AR up-regulators
Anticancer activity (SAR statement) [2]: moderately acting

GI50 (LNCaP cells; [7]): 4.41 µM
SMILES: COc1cccc(-c2ccc(Cn3cnc4ccccc43)cc2)c1 [VNPP347B, 3-[4-(benzimidazolylmethyl)phenyl]-1-methoxybenzene]
GI50 (CWR22Rv1; [8]): 14 µM

GI50 (LNCaP cells; [7]): 3.5 µM
GI50 (LNCaP cells; [9]): 3.71 µM
SMILES: N#Cc1cccc(-c2ccc(Cn3cnc4ccccc43)cc2)c1 [VNPP358, 3-[4-(benzimidazolylmethyl)phenyl]benzenecarbonitrile]
GI50 (CWR22Rv1; [8]): 10.5 µM

melting point: 231 to 233 °C
SMILES: c1cc(-c2ccc(Cn3cnc4ccccc43)cc2)cc(-c2nn[nH]n2)c1 [VNPP361, 5-{3-[4-(benzimidazolylmethyl)phenyl]phenyl}-1H-1,2,3,4-tetraazole]

melting point: 223 to 225 °C
SMILES: c1cc(-c2ccc(CCn3cnc4ccccc43)cc2)cc(-c2nn[nH]n2)c1 [VNPP364, 5-{3-[4-(benzimidazolylethyl)phenyl]phenyl}-1H-1,2,3,4-tetraazole]

GI50 (LNCaP cells; [7]): 6.09 µM
GI50 (LNCaP cells; [9]): 5.77 µM
SMILES: Oc1ccc2cc(-c3cccc(-n4cnc5ccccc54)c3)ccc2c1 [VNPP372/2, 6-(3-benzimidazolylphenyl)naphthalen-2-ol]
GI50 (CWR22Rv1; [8]): 8.91 µM

SMILES: C[C@]12CC[C@H](OC(=S)n3ccnc3)CC1=CCC1C2CC[C@]2(C)C(n3cnc4ccccc43)=CCC12 (stereo partly drawn) [VNPP397, 3β-(1H-imidazole-1-thiocarboxylate)-17-(1H-benzimidazol-1-yl)androsta-5,16-diene]
GI50 (LNCaP cells; [5]): 9.57 µM
GI50 (CWR22Rv1; [10]): 7.52 µM

SMILES: CO[C@H]1CC[C@@]2(C)C(=CC[C@@H]3[C@@H]2CC[C@]2(C)C(n4cnc5ccccc54)=CC[C@@H]32)C1 [VNPP412, 3β-(methoxy)-17-(1H-benzimidazol-1-yl) androsta-5,16-diene]
GI50 (LNCaP cells; [5]): 8.71 µM
GI50 (CWR22Rv1; [10]): 7.5 µM

SMILES: C[C@]12CC[C@H](OCc3ccncc3)CC1=CC[C@@H]1[C@@H]2CC[C@]2(C)C(n3cnc4ccccc43)=CC[C@@H]12 [VNPP414, 3β-(pyridine-4-ylmethoxy)-17-(1H-benzimidazol-1-yl) androsta-5,16-diene]
GI50 (LNCaP cells; [5]): 2.45 µM
GI50 (LNCaP cells; [11]): 0.87 µM
GI50 (LNCaP cells; [12]): 2.45 µM
GI50 (LNCaP cells; [6]): 0.87 µM
Phosphorylation of eIF4E [3]: downregulated
Protein expression of N-Cadherin, AR3, Mnk1/2, MMP-2, Ezh2, Mc1-1 [3]: decreased
Expression of CDC25c, Mnk2, Cyclin D1, Cox-2 and N-Cadherin [4]: reduced
PARP cleavage (signature of apoptosis) [4]: significant increase
GI50 (CWR22Rv1; [10]): 3.24 µM
GI50 (CWR22Rv1; CWR22Rv1, Table 10): 3.24 µM
Migration of PC3 cells (PC3 cells): profoundly inhibit migration

GI50 (LNCaP cells; [7]): 3.14 µM
GI50 (LNCaP cells; [9]): 5.23 µM
SMILES: COc1ccc(S(=O)(=O)Nc2cccc(-n3cnc4ccccc43)c2)cc1 [VNPP431, (3-benzimidazolylphenyl)[(4-methoxyphenyl)sulfonyl]amine]
GI50 (CWR22Rv1; [8]): 4.78 µM

SMILES: C[C@]12CC[C@H](n3cnc4ccccc43)CC1=CC[C@@H]1[C@@H]2CC[C@]2(C)C(n3cnc4ccccc43)=CC[C@@H]12 [VNPP433 (A2), 3β-(1H-benzimidazol-1-yl)-17-(1H-benzimidazol-1-yl)androsta-5,16-diene]
AR down-regulation against full length AR (full length AR): activity (AR down-regulation)

SMILES: C[C@]12CC[C@@H](n3ccnc3)CC1=CC[C@@H]1[C@@H]2CC[C@]2(C)C(n3cnc4ccccc43)=CC[C@@H]12 [VNPP433-3α, 3α-(1H-imidazol-1-yl)-17-(1H-benzimidazol-1-yl) androsta-5,16-diene]
GI50 (LNCaP cells; [5]): 8.91 µM
GI50 (LNCaP cells; [11]): 4.04 µM
AR down-regulation against full length AR (full length AR): activity (AR down-regulation)
GI50 (CWR22Rv1; [10]): 9.88 µM

SMILES: C[C@]12CC[C@H](n3ccnc3)CC1=CC[C@@H]1[C@@H]2CC[C@]2(C)C(n3cnc4ccccc43)=CC[C@@H]12 [VNPP433-3β, 3β-(1H-imidazol-1-yl)-17-(1H-benzimidazol-1-yl) androsta-5,16-diene]
GI50 (LNCaP cells; [5]): 1.64 µM
GI50 (LNCaP cells; [11]): 0.81 µM
GI50 (LNCaP cells; [12]): 1.64 µM
GI50 (LNCaP cells; [6]): 0.81 µM
AR down-regulation against full length AR (full length AR): activity (AR down-regulation)
GI50 (CWR22Rv1; [10]): 2.54 µM
GI50 (CWR22Rv1; CWR22Rv1, Table 10): 2.54 µM

SMILES: C[C@]12CCC3CC31[C@H](n1ccnc1)CC1C3CC=C(n4cnc5ccccc54)C3CCC12 (stereo partly drawn) [VNPP433-6β, 6β-imidazol-1yl-3,5-cycloandrostan-17-benzimidazole-1-yl-16-ene]
GI50 (LNCaP cells; [5]): 6.61 µM
AR down-regulation against full length AR (full length AR): activity (AR down-regulation)
GI50 (CWR22Rv1; [10]): 12.3 µM
